Data as given in PubChem BioAssay AID248 (DTP/NCI, 2004).
Values joined by “and” are separate entries in the source; they are usually repeats but may differ in a detail not shown here. Identical values can stand only once. Inconclusive results and toxic doses are left out. Rule as the data show it: active = T/C of 150% or more; inactive = T/C below 125%.

Tested on: L1210 leukemia ip in BDF1 mice, survival T/C
Experiment: NCI In Vivo Anticancer Drug Screen. Data for tumor model L1210 Leukemia (intraperitoneal) in B6D2F1 (BDF1) mice
Settings: endpoint: mean survival time, higher = longer survival
Outline: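 Transplantable tumor model; survival measured in treated vs vehicle control mice. Value = treated/control.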

[1] = dose: 100.0 mg/kg/injection, schedule: Q01DX001 (ip), vehicle: saline
[2] = dose: 100.0 mg/kg/injection, schedule: Q04DX003 (ip), vehicle: saline
[3] = dose: 200.0 mg/kg/injection, schedule: Q01DX001 (ip), vehicle: saline
[4] = dose: 400.0 mg/kg/injection, schedule: Q01DX001 (ip), vehicle: saline

Measured: T/C

CCCCCCCCCCCCCCCCCC(=O)OCC1OC(OC2(COC(=O)CCCCCCCCCCCCCCCCC)OC(COC(=O)CCCCCCCCCCCCCCCCC)C(OC(=O)CCCCCCCCCCCCCCCCC)C2OC(=O)CCCCCCCCCCCCCCCCC)C(OC(=O)CCCCCCCCCCCCCCCCC)C(OC(=O)CCCCCCCCCCCCCCCCC)C1OC(=O)CCCCCCCCCCCCCCCCC (centres undefined)
inactive: dose: 100.0 mg/kg/injection, schedule: Q01DX001 (ip), vehicle: other 93 % of control | dose: 200.0 mg/kg/injection, schedule: Q01DX001 (ip), vehicle: other 90 % of control | dose: 400.0 mg/kg/injection, schedule: Q01DX001 (ip), vehicle: other 97 % of control

N#CC1(C#N)C2C=CC(C3C(Cl)C=CC32)C1(C#N)C#N (centres undefined)
inactive: dose: 12.5 mg/kg/injection, schedule: Q01DX009 (ip), vehicle: saline with Tween-80 87 % of control | dose: 12.5 mg/kg/injection, schedule: Q04DX003 (ip), vehicle: saline with Tween-80 96 % of control | dose: 25.0 mg/kg/injection, schedule: Q01DX009 (ip), vehicle: saline with Tween-80 89 % of control | dose: 25.0 mg/kg/injection, schedule: Q04DX003 (ip), vehicle: saline with Tween-80 94 % of control | dose: 50.0 mg/kg/injection, schedule: Q04DX003 (ip), vehicle: saline with Tween-80 97 % of control

CCOC(=O)NP(NC(=O)NOC)NC(=O)OCC
inactive: dose: 100.0 mg/kg/injection, schedule: Q01DX001 (ip), vehicle: carboxymethylcellulose (CMC) 101 % of control | dose: 200.0 mg/kg/injection, schedule: Q01DX001 (ip), vehicle: carboxymethylcellulose (CMC) 93 % of control | dose: 400.0 mg/kg/injection, schedule: Q01DX001 (ip), vehicle: carboxymethylcellulose (CMC) 101 % of control

CC(C)(C)OC(=O)CC1(C)CCC2C1C(=O)OC2(C)C (centres undefined)
inactive: dose: 25.0 mg/kg/injection, schedule: Q04DX003 (ip), vehicle: saline 98 % of control | dose: 50.0 mg/kg/injection, schedule: Q04DX003 (ip), vehicle: saline 98 % of control | [1] 91 % of control | [2] 102 % of control

CC(=O)OCC(=O)C1CCC2(C)C3=C(CCC12C)C1(C)CCC(=O)C(C)(C)C1CC3 (centres undefined)
inactive: dose: 50.0 mg/kg/injection, schedule: Q01DX001 (sc), vehicle: steriod suspending solution 105 % of control | dose: 100.0 mg/kg/injection, schedule: Q01DX001 (sc), vehicle: steriod suspending solution 94 % of control | dose: 200.0 mg/kg/injection, schedule: Q01DX001 (sc), vehicle: steriod suspending solution 100 % of control | dose: 400.0 mg/kg/injection, schedule: Q01DX001 (sc), vehicle: steriod suspending solution 100 % of control

O=[N+]([O-])CC(O)C(O)C(O)C(O)CO (centres undefined)
inactive: [2] 102 % of control | dose: 200.0 mg/kg/injection, schedule: Q04DX003 (ip), vehicle: saline 102 % of control | dose: 400.0 mg/kg/injection, schedule: Q04DX003 (ip), vehicle: saline 102 % of control

Cc1ccc2[nH]c3c(C)c4ccncc4c(C)c3c2c1
inactive: dose: 12.5 mg/kg/injection, schedule: Q01DX Z (ip), vehicle: saline 103 % of control | dose: 25.0 mg/kg/injection, schedule: Q01DX Z (ip), vehicle: saline 97 % of control | dose: 50.0 mg/kg/injection, schedule: Q01DX Z (ip), vehicle: saline 111 % of control | dose: 75.0 mg/kg/injection, schedule: Q01DX Z (ip), vehicle: saline 102 % of control | [1] 105 % of control | dose: 100.0 mg/kg/injection, schedule: Q01DX Z (ip), vehicle: saline 97 % of control and 107 % of control | dose: 150.0 mg/kg/injection, schedule: Q01DX Z (ip), vehicle: saline 100 % of control | [3] 98 % of control | dose: 225.0 mg/kg/injection, schedule: Q01DX Z (ip), vehicle: saline 105 % of control | dose: 340.0 mg/kg/injection, schedule: Q01DX Z (ip), vehicle: saline 102 % of control | [4] 100 % of control

CC(C)C1=CC23CCC4C(C)(C(=O)Cl)CCCC4(C)C2CC1C1(Br)C(=O)OC(=O)C31Br (centres undefined)
inactive: dose: 75.0 mg/kg/injection, schedule: Q01DX001 (ip), vehicle: other 93 % of control | dose: 150.0 mg/kg/injection, schedule: Q01DX001 (ip), vehicle: other 88 % of control | dose: 300.0 mg/kg/injection, schedule: Q01DX001 (ip), vehicle: other 91 % of control

O=C(O)C1=NNC(C(=O)O)=NN1
inactive: dose: 100.0 mg/kg/injection, schedule: Q01DX001 (ip), vehicle: Klucel (hydroxypropylcellulose) (HPC) 92 % of control | dose: 200.0 mg/kg/injection, schedule: Q01DX001 (ip), vehicle: Klucel (hydroxypropylcellulose) (HPC) 100 % of control | dose: 400.0 mg/kg/injection, schedule: Q01DX001 (ip), vehicle: Klucel (hydroxypropylcellulose) (HPC) 104 % of control

Nc1nc(N)c(-c2ccc(Cl)cc2)c(CCc2ccc(NC(=O)CBr)cc2)n1
inactive: dose: 50.0 mg/kg/injection, schedule: Q01DX001 (ip), vehicle: saline 116 % of control | [1] 110 % of control

O=C(Nc1ccc([N+](=O)[O-])cc1)N1CCCCC1
inactive: [1] 95 % of control | [3] 95 % of control | [4] 97 % of control
